Series [1] concerns Alopecurus myosuroides (ALOMY). The series is described as follows: Example B pre-emergence herbicidal activity, glasshouse pot test. The class given is in vivo. As to conditions: 312 h, first table (headed Post-Emergence, taken as pre-emergence), rate 1000 g/ha, evaluated after 13 days, read-out: ALOMY activity (100=total damage to plant; 0=no damage to plant). The procedure: (§1) Seeds of a variety of test species are sown in standard soil in pots. After cultivation for one day (pre-emergence) or after 8 days cultivation (post-emergence) under controlled conditions in a glasshouse (at 24/16° C., day/night; 14 hours light; 65% humidity), the plants are sprayed with an aqueous spray solution derived from the formulation of the technical active ingredient in acetone/water (50:50) solution containing 0.5% Tween 20 (polyoxyethelyene sorbitan monolaurate, CAS RN 9005-64-5). The test plants are then grown in a glasshouse under controlled conditions in a glasshouse (at 24/16° C., day/night; 14 hours light; 65% humidity) and watered twice daily. After 13 days for pre and post-emergence, the test is evaluated (100=total damage to plant; 0=no damage to plant). Test Plants: Setaria faberi (SETFA), Alopecurus myosuroides (ALOMY), Echinochloa crus-galli (ECHCG), Avena fatua (AVEFA)

In series [2] the test system is Avena fatua (AVEFA). Described as above. The class given is in vivo. The conditions noted are these: 312 h, first table (headed Post-Emergence, taken as pre-emergence), rate 1000 g/ha, evaluated after 13 days, read-out: AVEFA activity (100=total damage to plant; 0=no damage to plant). The procedure: as §1
Series [3] relates to Echinochloa crus-galli (ECHCG). The series is described as above. As to conditions: 312 h, first table (headed Post-Emergence, taken as pre-emergence), rate 1000 g/ha, evaluated after 13 days, read-out: ECHCG activity (100=total damage to plant; 0=no damage to plant). The format is in vivo. Here is the method: as §1
In series [4] the test system is Setaria faberi (SETFA). Described as above. The format is in vivo. The conditions noted are these: 312 h, first table (headed Post-Emergence, taken as pre-emergence), rate 1000 g/ha, evaluated after 13 days, read-out: SETFA activity (100=total damage to plant; 0=no damage to plant). Here is the method:
as §1

Series [5] has as its system Alopecurus myosuroides (ALOMY). The series is described as follows: Example B post-emergence herbicidal activity, glasshouse pot test. The class given is in vivo. The conditions noted are these: 312 h, evaluated after 13 days, read-out: ALOMY post-emergence activity (100=total damage to plant; 0=no damage to plant); for pest or weed control at 1000 g/ha: rate 1000 g/ha; for pest or weed control at 250 g/ha: rate 250 g/ha. The procedure:
as §1

The subject of series [6] is Avena fatua (AVEFA). The description is as above. The class given is in vivo. As to conditions: 312 h, evaluated after 13 days, read-out: AVEFA post-emergence activity (100=total damage to plant; 0=no damage to plant); for pest or weed control at 1000 g/ha: rate 1000 g/ha; for pest or weed control at 250 g/ha: rate 250 g/ha. Here is the method:
as §1

The subject of series [7] is Echinochloa crus-galli (ECHCG). Described as above. The class given is in vivo. As to conditions: 312 h, evaluated after 13 days, read-out: ECHCG post-emergence activity (100=total damage to plant; 0=no damage to plant); for pest or weed control at 1000 g/ha: rate 1000 g/ha; for pest or weed control at 250 g/ha: rate 250 g/ha. Here is the method:
as §1

Series [8] relates to Setaria faberi (SETFA). The description is as above. The conditions noted are these: 312 h, evaluated after 13 days, read-out: SETFA post-emergence activity (100=total damage to plant; 0=no damage to plant); for pest or weed control at 1000 g/ha: rate 1000 g/ha; for pest or weed control at 250 g/ha: rate 250 g/ha. The format is in vivo. The procedure:
as §1

`CCON1CCC2(CC1)NC(=O)C(c1c(C)cc(C)cc1C)=C2OC(=O)C(C)(C)C` [Compound P25, 2,2-dimethyl-propionic acid 8-ethoxy-2-oxo-3-(2,4,6-trimethyl-phenyl)-1,8-diaza-spiro[4.5]dec-3-en-4-yl ester]: the pest or weed control at 1000 g/ha in series [1] is 60%; with Avena fatua (AVEFA) [2], 0%; in series [3], 80%; with Setaria faberi (SETFA) [4], 60%; in [5], 50%; in the series on Avena fatua (AVEFA) [6], 0%. For the same molecule, the pest or weed control at 1000 g/ha stood at 40% in series [7] and 0% in the series on Setaria faberi (SETFA) [8].
By melting point is commonly meant the temperature, or range, at which the solid turns liquid. `CON1CCC2(CC1)NC(=O)C(c1c(C)cc(Br)cc1C)C2=O` (stereo not drawn) [Compound T12] yielded a melting point of 260 to 264 °C. Also, in series [1], the pest or weed control at 1000 g/ha amounted to 70%. In the series with Avena fatua (AVEFA) [2], the pest or weed control at 1000 g/ha came out at 80%. Also, in series [3], the pest or weed control at 1000 g/ha amounted to 20%. Moreover, the pest or weed control at 1000 g/ha in the series on Setaria faberi (SETFA) [4] is 90%. The pest or weed control at 1000 g/ha in series [5] worked out at 80%. For the same molecule, in the series with Avena fatua (AVEFA) [6], the pest or weed control at 1000 g/ha stood at 90%. Also, in [7], the pest or weed control at 1000 g/ha came out at 80%. Moreover, the pest or weed control at 1000 g/ha in the series on Setaria faberi (SETFA) [8] came to 90%.
`CCOC(=O)OC1=C(c2c(C)cc(Br)cc2C)C(=O)NC12CCN(OC)CC2` [Compound P49] showed a melting point of 185 to 187 °C. For the same molecule, the pest or weed control at 1000 g/ha in [1] was 80%. For the same molecule, the pest or weed control at 1000 g/ha in the series on Avena fatua (AVEFA) [2] was found to be 80%. Also, the pest or weed control at 1000 g/ha in series [3] worked out at 70%. Also, the pest or weed control at 1000 g/ha with Setaria faberi (SETFA) [4] was 80%. Besides, in series [5], the pest or weed control at 1000 g/ha stood at 90%. The pest or weed control at 1000 g/ha in the series with Avena fatua (AVEFA) [6] was determined as 80%. Further, the pest or weed control at 1000 g/ha in series [7] came to 80%. Further, the pest or weed control at 1000 g/ha with Setaria faberi (SETFA) [8] worked out at 80%.
Regarding `C=CCOC(=O)OC1=C(c2c(C)cc(Br)cc2C)C(=O)NC12CCN(OC)CC2` [Compound P48], the melting point is 207 to 211 °C. Also, the pest or weed control at 1000 g/ha in series [1] turned out to be 100%. Besides, the pest or weed control at 1000 g/ha with Avena fatua (AVEFA) [2] was found to be 80%. Besides, the pest or weed control at 1000 g/ha in series [3] stood at 80%. Also, the pest or weed control at 1000 g/ha in the series on Setaria faberi (SETFA) [4] worked out at 90%. The pest or weed control at 1000 g/ha in [5] stood at 80%. Moreover, the pest or weed control at 1000 g/ha with Avena fatua (AVEFA) [6] came out at 10%. In addition, the pest or weed control at 1000 g/ha in series [7] was 80%. In addition, in the series on Setaria faberi (SETFA) [8], the pest or weed control at 1000 g/ha was 80%.
For the molecule `CON1CCC2(CC1)NC(=O)C(c1cc(C3CC3)c(C)cc1C)=C2OC(=O)C(C)(C)C` [Compound P56], the melting point was in the range of 218 to 219 °C. The pest or weed control at 250 g/ha in [5] is 20%. Moreover, in the series with Avena fatua (AVEFA) [6], the pest or weed control at 250 g/ha was determined as 40%. For the same molecule, the pest or weed control at 250 g/ha in [7] is 50%. The pest or weed control at 250 g/ha in the series with Setaria faberi (SETFA) [8] was 60%.
`CCON1CCC2(CC1)NC(=O)C(c1c(C)cc(C)cc1C)C2=O` (stereo not drawn) [Compound T5]: the pest or weed control at 1000 g/ha came to 100% in series [1]; 90% in the series on Avena fatua (AVEFA) [2]; 100% in series [3]; 90% in the series with Setaria faberi (SETFA) [4]; 90% in series [5]; 60% with Avena fatua (AVEFA) [6]. Moreover, the pest or weed control at 1000 g/ha was 100% in series [7] and 90% in the series with Setaria faberi (SETFA) [8].
As to `CON1CCC2(CC1)NC(=O)C(c1c(C)cc(C)cc1C)C2=O` (stereo not drawn) [Compound T4], the pest or weed control at 1000 g/ha in series [1] is 90%; in the series with Avena fatua (AVEFA) [2], 100%; in series [3], 100%; in the series on Setaria faberi (SETFA) [4], 90%; in series [5], 100%; in the series with Avena fatua (AVEFA) [6], 90%. Further, the pest or weed control at 1000 g/ha (in series [7]; in the series on Setaria faberi (SETFA) [8]) was 100% throughout.
Take `CON1CCC2(CC1)NC(=O)C(c1ccc(Br)cc1C)C2=O` (stereo not drawn) [Compound T22]: the melting point was 187 to 189 °C. Also, the pest or weed control at 250 g/ha in series [5] came out at 60%. The pest or weed control at 250 g/ha in the series on Avena fatua (AVEFA) [6] was 40%. Moreover, the pest or weed control at 250 g/ha in series [7] was 80%. In addition, the pest or weed control at 250 g/ha in the series with Setaria faberi (SETFA) [8] stood at 80%.
On to `CON1CCC2(CC1)NC(=O)C(c1ccc(Br)cc1Cl)C2=O` (stereo not drawn) [Compound T21], for which the melting point lay within 167 to 169 °C. In addition, the pest or weed control at 250 g/ha in series [5] came out at 80%. Besides, the pest or weed control at 250 g/ha in the series on Avena fatua (AVEFA) [6] turned out to be 60%. In series [7], the pest or weed control at 250 g/ha is 90%. In addition, in the series with Setaria faberi (SETFA) [8], the pest or weed control at 250 g/ha is 80%.
For the molecule `CON1CCC2(CC1)NC(=O)C(c1cc(C3CC3)c(C)cc1C)C2=O` (stereo not drawn) [Compound T16, 3-(5-cyclopropyl-2,4-dimethyl-phenyl)-4-hydroxy-8-methoxy-1,8-diaza-spiro[4.5]dec-3-en-2-one], the pest or weed control at 250 g/ha came out at 60% in [5], 30% in the series with Avena fatua (AVEFA) [6], 60% in series [7] and 80% with Setaria faberi (SETFA) [8].
Molecule `CCOC(=O)OC1=C(c2ccc(Br)cc2C)C(=O)NC12CCN(OC)CC2` [Compound P68] registered a melting point of 201 to 203 °C. In addition, the pest or weed control at 250 g/ha in series [5] was determined as 70%. For the same molecule, the pest or weed control at 250 g/ha with Avena fatua (AVEFA) [6] turned out to be 60%. Also, the pest or weed control at 250 g/ha in series [7] was found to be 90%. Besides, in the series on Setaria faberi (SETFA) [8], the pest or weed control at 250 g/ha worked out at 90%.
For the molecule `CON1CCC2(CC1)NC(=O)C(c1cc(-c3ccc(Cl)cc3)c(C)cc1C)C2=O` (stereo not drawn) [Compound T15], the melting point lay in the range of 168 to 169 °C. Also, the pest or weed control at 250 g/ha in [5] came out at 60%. The pest or weed control at 250 g/ha with Avena fatua (AVEFA) [6] is 60%. In addition, in series [7], the pest or weed control at 250 g/ha was 90%. In the series on Setaria faberi (SETFA) [8], the pest or weed control at 250 g/ha was 90%.
On to `COc1ccc(COC2=C(c3ccc(Cl)cc3Cl)C(=O)NC23CCN(OC)CC3)cc1` [Compound P32], for which the melting point was 111 to 113 °C. Moreover, in [5], the pest or weed control at 1000 g/ha worked out at 70%. Moreover, in the series on Avena fatua (AVEFA) [6], the pest or weed control at 1000 g/ha was determined as 60%. For the same molecule, the pest or weed control at 1000 g/ha in series [7] is 80%. Besides, the pest or weed control at 1000 g/ha in the series with Setaria faberi (SETFA) [8] came to 90%.
Take `CON1CCC2(CC1)NC(=O)C(c1cc(Br)ccc1C)=C2OC(=O)N(C)CCC#N` [Compound P28]: the melting point was in the range of 197 to 200 °C.
`CON1CCC2(CC1)NC(=O)C(c1c(C)cc(-c3ccc(Cl)cc3)cc1C)=C2OC(=O)C(C)(C)C` [Compound P71] had a melting point above 250 °C. For the same molecule, in series [5], the pest or weed control at 250 g/ha was 0%. Besides, the pest or weed control at 250 g/ha in the series with Avena fatua (AVEFA) [6] came to 20%. In series [7], the pest or weed control at 250 g/ha stood at 30%. The pest or weed control at 250 g/ha with Setaria faberi (SETFA) [8] was 60%.
Take `C=CCOC1=C(c2cc(C)ccc2C)C(=O)NC12CCN(OC)CC2` [Compound P37]: the melting point was in the range of 173 to 174 °C.
The same measure, in the same setting: for `CON1CCC2(CC1)NC(=O)C(c1ccc(C3CC3)cc1C)C2=O` (stereo not drawn) [Compound T18] the value was 191 to 194 °C.
On the same count and under the same terms, the result for `CCOC(=O)OC1=C(c2ccc(Cl)cc2Cl)C(=O)NC12CCN(OCC)CC2` [Compound P23] reads 183 to 184 °C; that for `CON1CCC2(CC1)NC(=O)C(c1ccc(Cl)c(Cl)c1)=C2OC(=O)N(C)CCC#N` [Compound P41], 56 to 59 °C.
On the same count and under the same terms, the result for `CON1CCC2(CC1)NC(=O)C(c1c(C)cc(C3CC3)cc1C)C2=O` (stereo not drawn) [Compound T13] reads above 250 °C.
